This note sets out measurements from US20210395210A1, “INHIBITION OF BACTERIAL CHAPERONIN SYSTEMS” (THE TRUSTEES OF INDIANA UNIVERSITY, priority 2018, published 2021).

One series concerns HEK 293 kidney cells. Briefly: Kidney cell viability assay (Alamar Blue). To be noted: read-out: Human Cell Viability CC50, Kidney (HEK 293); HEK 293 kidney cells, Alamar Blue, 48 h. How it is done: (§1) HEK 293 cells were maintained in MEM medium (Corning Cellgro, 10-009 CV) supplemented with 10% FBS (Sigma, F2242). […] Cells at 80% confluence were harvested and diluted in growth medium, then 45 μL of the THLE-3 cells (1,500 cells/well) or HEK 293 cells (1,500 cells/well) were dispensed per well, and plates were sealed with “Breathe Easy” oxygen permeable membranes (Diversified Biotech) and incubated at 37° C., 5% CO2, for 24 h.
(The colour change of resazurin is a common sign of viable cells or microbes.)

The subject of the next series is THLE-3 liver cells. As to the kind of experiment: Liver cell viability assay (Alamar Blue). To be noted: read-out: Human Cell Viability CC50, Liver (THLE-3); THLE-3 liver cells, Alamar Blue, 48 h. As for the experimental part: as §1
Series [1] deals with S. aureus Rosenbach (ATCC 25923) in established biofilms. Briefly: S. aureus biofilm penetration and bactericidal activity assay. Format: cell-based, Staphylococcus aureus. To be noted: read-out: S. aureus Proliferation & Biofilm Assay EC50 Killing Bacteria in Biofilms. As for the experimental part: The biofilm penetration and bactericidal activity assay was carried out with S. aureus Rosenbach (ATCC 25923) as described previously by Kwasny et al. S. aureus bacteria were streaked onto a Tryptic Soy Broth (TSB) agar plate and grown overnight at 37° C. A fresh aliquot of TSB media was inoculated with a single bacterial colony and the cultures were grown overnight at 37° C. with shaking (250 rpm). The overnight culture was then sub-cultured (1:5 dilution) into a fresh aliquot of TSB media supplemented with 0.5% glucose and grown at 37° C. for 1 h with shaking, then diluted into fresh TSB media supplemented with 0.5% glucose to achieve a final OD600 reading of 0.01. Aliquots of the diluted culture (100 μL) were dispensed to 96 well polystyrene plates without any compounds added. A second set of control plates were prepared analogously, but without any bacteria added. Plates were sealed with “Breathe Easy” oxygen permeable membranes (Diversified Biotech) and left to incubate at 37° C. without shaking (stagnant assay) until biofilm was formed. After 24 h, the planktonic cultures (or media blanks in the control plates) were removed and the plates were washed gently 3 times with 200 μL of sterile phosphate buffered saline (PBS). Then, 100 μL aliquots of fresh TSB media were dispensed to the plates along with addition of 1 μL of test compounds in DMSO. The inhibitor concentration range during the assay was 100 μM to 46 nM (3-fold dilution series). The plates were sealed with “Breathe Easy” membranes and incubated at 37° C. without shaking to allow compounds to penetrate and kill bacteria in the biofilms. After 24 h, the cultures were removed and plates were washed again gently 3 times with 200 μL of sterile PBS. The remaining bacteria in the biofilms were allowed to recover by adding 100 μL of fresh TSB media per well and incubating for 24 h at 37° C. At the end of this final incubation, bacterial growth was monitored by measuring the OD600 nm using a Molecular Devices SpectraMax Plus384 microplate reader. […] Results presented represent the averages of EC50 values obtained from at least triplicate experiments.
Next, we evaluated whether or not compounds would be bactericidal to S. aureus that were within already established biofilms. In this assay, we first grew S. aureus bacteria for 24 h in the absence of test compounds so that they could establish biofilms in the wells. After 24 h, the cultures were removed, the wells were washed gently, and fresh media was added along with test compounds or vancomycin. […] Fresh media was then added and the cultures were incubated for another 24 h to allow any viable bacteria remaining in the biofilms to emerge and grow planktonically again.

The test system of another series is MRSA (ATCC BAA-44). Briefly: MRSA resistance generation, 12-day serial passage assay. The format is cell-based, Staphylococcus aureus. To be noted: 12 days serial passage, EC50 per passage. How it is done:
To identify potential resistance toward compounds 1 and 11, a liquid culture, 12-day serial passage assay was employed as per previously reported procedures, and using the ATCC BAA-44 MRSA strain. MRSA bacteria were streaked onto a Tryptic Soy agar plate and grown overnight at 37° C. A fresh aliquot of Tryptic Soy Broth (TSB) was inoculated with a single bacterial colony and the cultures were grown overnight at 37° C. with shaking (250 rpm). The overnight culture was then sub-cultured (1:5 dilution) into a fresh aliquot of media and grown at 37° C. for 1 h with shaking, then diluted into fresh media to achieve a final OD600 reading of 0.01. Aliquots of the diluted culture (200 μL) were dispensed to 96 well plates along with addition of 2 μL of test compounds in DMSO (1, 11, vancomycin, and a previously-reported GroEUES inhibitor, “28R”). The inhibitor concentration range during the resistance assay was 100 μM to 48.8 nM (2-fold dilution series). Plates were sealed with “Breathe Easy” oxygen permeable membranes (Diversified Biotech) and left to incubate at 37° C. without shaking (stagnant assay). OD600 readings were taken at the 24 h time point to monitor for bacterial growth. A second set of baseline control plates were prepared analogously, without any bacteria added, to correct for possible compound absorbance and/or precipitation, as well as plate and media baseline effects. […]

[2] abbreviates: Staphylococcus aureus, ATCC25923, 24 h.

Entries after “also recorded” stand apart in the source; their conditions may differ. Read-outs that look alike come from different tables or passages of the source.

What is called CC50 is the concentration at which the toxic effect on the cells reaches its halfway point. With `Cc1cc(C(C#N)c2ccc(Cl)cc2)c(Cl)cc1NC(=O)c1cc(I)cc(I)c1O` (stereo not drawn) [Closantel, closantel, reference compound], in the series on HEK 293 kidney cells, the CC50 is 75 µM.

Turning to `O=C(Nc1ccc(Oc2ccc(Cl)cc2)c(Cl)c1)c1cc(I)cc(I)c1O` [Rafoxanide, rafoxanide, reference compound], the values for the CC50 in the series with THLE-3 liver cells and in the series with HEK 293 kidney cells were 24 µM and above 100 µM, respectively.

On to `O=C(Nc1ccccc1)c1ccccc1O` [Compound 16, 2-Hydroxy-N-phenylbenzamide], for which the CC50 in the series with THLE-3 liver cells was 68 µM; with HEK 293 kidney cells, above 100 µM.

In the case of `O=C(Nc1ccc(Sc2nc3ccccc3s2)cc1)c1ccccc1O` [Compound 8, N-(4-(Benzo[d]thiazol-2-ylthio)phenyl)-2-hydroxybenzamide], the EC50 in series [1] (Staphylococcus aureus, ATCC25923, established 24 h biofilm, 24 h with compound, 24 h recovery, OD600) amounted to 2 µM.

With `O=C(Nc1cccc(Cl)c1)c1cc(Br)ccc1O` [Compound 11, 5-Bromo-N-(3-chlorophenyl)-2-hydroxybenzamide], in the series with MRSA (ATCC BAA-44), the “ability of MRSA to generate resistance (in words)” value is “not able to easily generate resistance; also recorded: retained sensitivity”. Further, the EC50 in series [1] (setting [2]) turned out to be 6.9 µM.

In the case of `O=C(Nc1ccc(Sc2nc3ccccc3s2)c(Cl)c1)c1cc(Br)cc(Br)c1O` [Compound 1, N-(4-(Benzo[d]thiazol-2-ylthio)-3-chlorophenyl)-3,5-dibromo-2-hydroxybenzamide], the “ability of MRSA to generate resistance (in words)” value in the series with MRSA (ATCC BAA-44) is listed as “not able to easily generate resistance; also recorded: retained sensitivity”. Moreover, the EC50 in series [1] (setting [2]) was determined as 2.4 µM.

Regarding `CN[C@H](CC(C)C)C(=O)N[C@H]1C(=O)N[C@@H](CC(N)=O)C(=O)N[C@H]2C(=O)N[C@H]3C(=O)N[C@H](C(=O)N[C@H](C(=O)O)c4cc(O)cc(O)c4-c4cc3ccc4O)[C@H](O)c3ccc(c(Cl)c3)Oc3cc2cc(c3O[C@@H]2O[C@H](CO)[C@@H](O)[C@H](O)[C@H]2O[C@H]2C[C@](C)(N)[C@H](O)[C@H](C)O2)Oc2ccc(cc2Cl)[C@H]1O` [Vancomycin, vancomycin, reference compound], the CC50 in the series with THLE-3 liver cells and with HEK 293 kidney cells was above 100 µM each time. For the same compound, the EC50 in series [1] (established 24 h biofilm, 24 h with compound, 24 h recovery, OD600) was above 100 µM.

For `O=C(Nc1ccc(Sc2nc3ccccc3s2)cc1)c1cc(Br)cc(Br)c1O` [Compound 5, N-(4-(Benzo[d]thiazol-2-ylthio)phenyl)-3,5-dibromo-2-hydroxybenzamide], the EC50 in series [1] (setting [2]) amounted to 2.3 µM.

On to `O=C(Nc1cccc(Cl)c1)c1cc(Br)cc(Br)c1O` [Compound 9, 3,5-Dibromo-N-(3-chlorophenyl)-2-hydroxybenzamide], for which the values for the CC50 in the series with THLE-3 liver cells and in the series with HEK 293 kidney cells were 9.2 µM and 18 µM, respectively.

In the case of `CC1(C)S[C@@H]2[C@H](NC(=O)[C@H](N)c3ccccc3)C(=O)N2[C@H]1C(=O)O` [Ampicillin, ampicillin, reference compound], the CC50 in the series on THLE-3 liver cells and with HEK 293 kidney cells was above 100 µM throughout.

With `O=C(Nc1ccccc1)c1cc(Br)cc(Br)c1O` [Compound 13, 3,5-Dibromo-2-hydroxy-N-phenylbenzamide], the CC50 in the series with THLE-3 liver cells amounted to 25 µM; in the series with HEK 293 kidney cells, 34 µM.

For the compound `O=C(Nc1ccc(Sc2nc3ccccc3s2)c(Cl)c1)c1cccc(Br)c1O` [Compound 2, N-(4-(Benzo[d]thiazol-2-ylthio)-3-chlorophenyl)-3-bromo-2-hydroxybenzamide], the EC50 in series [1] (setting [2]) was 5.6 µM.
